Results as given in patent US20060210614A1, “Method of treatment of a metabolic disease using intranasal administration of exendin peptide” (Nastech Pharmaceutical Company Inc., priority 2003, published 2006).
Where two headings read alike, the source gives them in different places.

What was measured:
[1] = test system: epithelial tissue barrier (EpiAirway™ Tissue Model); assay: In vitro permeation of Fluorescein-Exendin-4 across the cellular barrier; conditions: for Fold increase in exenatide permeation over AKL-225-126-2: one hour incubation, full dose volume
Source text: A standard curve was generated over the relevant quantitation range. […] Initial studies focused on optimizing the concentrations of Me-β-CD, DDPC, EDTA and gelatin to enhance exenatide permeation across an epithelial tissue layer.

[2] = Physical stability (clarity, absorbance at 630 nm) after storage at 5° C.
Description: In vitro optimization of the exenatide formulation included a preservatives screen. Physical stability after storage at 5° C. was measured for all formulations tested in vitro. Exenatide formulations were placed in 1 cc glass vials and closed with trifoil lined caps and stored at 5° C. for at least two weeks. Physical stability was monitored by measuring clarity. Clarity of a formulation was determined by measuring absorbance at 630 nm, using the μQuant optical density plate reader for each formulation at days 0, 7, and 14. A 200 μL volume from each vial was placed in a 96-well plate and read against a background of water.
Varying concentrations of sodium benzoate (NaBenz) and benzalkonium chloride (BAK), were screened for their effect on physical stability of the three formulations used in in vivo studies. Sodium benzoate was added at […], while BAK was tested at 0.2, 1.0, 2.0, and 4.0 mg/mL. To prepare the samples, varying amounts of stock solutions of the two preservatives were added to the three prepared formulations dosed in the PK study. […] The resulting formulations were stored at 5° C. for 5.5 weeks. Physical stability was monitored by measuring the absorbance of the solution at 630 nm.
Sodium benzoate was added at concentrations of 1.0 to 5.0 mg/mL, while BAK was tested at 0.05, 0.075, and 0.1 mg/mL. To prepare the samples, varying amounts of stock solutions of the two preservatives were added to the formulations prepared in the PK study and the pH was adjusted to 4.5 with HCl as necessary. The resulting formulations were stored at 5° C. for 4 weeks. Physical stability was monitored by measuring the absorbance of the solution at 630 nm.

[3] = anesthetized rats, cited from earlier work
aminopeptidases = conditions: cited from earlier work
[4] = aqueous solution at physiologic pH; cited from earlier work
[5] = test system: normal, human-derived tracheal/bronchial epithelial cells (EpiAirway™ Tissue Model); conditions: exenatide formulation containing the excipient; LDH and MTT
Description: The amount of cell death was assayed by measuring the loss of lactate dehydrogenase (LDH) from the cells using a CytoTox 96 Cytoxicity Assay Kit (Promega Corp., Madison, Wis.). Fresh, cell-free culture medium was used as a blank. 50 μl harvested media (stored at 4° C.) was loaded in a 96-well plate. Substrate Solution (50 μl) was added to each well and the plates were incubated for thirty (30) minutes at ambient temperature in the dark. Following incubation, 50 μl of Stop Solution was added to each well and the reaction was monitored at A490 using an optical density plate reader. Media alone applied to the apical side served as a negative control while triton X served as the positive control for the LDH assay.
The optical density of the samples was measured at A550 on an optical density plate reader (Molecular Devices, Palo Alto, Calif.). Media alone applied to the apical side served as a […] for the MTT assay.
A second round of studies, series B, systematically screened several excipients for their potential to enhance exenatide permeation to a greater degree than the Me-β-CD, DDPC, EDTA, and gelatin combinations. […] As with series A formulations, each formulation was evaluated for exenatide permeation, ability to reduce TER while not adversely affecting cell viability, and formulation physical stability.

[6] = test system: normal, human-derived tracheal/bronchial epithelial cells (EpiAirway™ Tissue Model); assay: Transepithelial Electrical Resistance (TER) measurements using an in vitro nasal epithelial model; type: cell-based; conditions: 60 minute exposure
Source text: The cell line MatTek Corp. (Ashland, Mass.) was used as the source of normal, human-derived tracheal/bronchial epithelial cells (EpiAirway™ Tissue Model). The cells are highly differentiated and retain all the properties of respiratory epithelial tissue. The cells were provided as inserts grown to confluence on Millipore Milicell-CM filters comprised of transparent hydrophilic Teflon (PTFE). […] TER measurements were accomplished using the Endohm-12 Tissue Resistance Measurement Chamber connected to the EVOM Epithelial Voltohmmeter (World Precision Instruments, Sarasota, Fla.) with the electrode leads. The electrodes and a tissue culture blank insert were equilibrated for at least twenty (20) minutes in phosphate buffered solution with the power off prior to checking calibration. The background resistance was measured with 1.5 mL media in the Endohm tissue chamber and 300 μL media in a blank Millicell-CM insert. […] The background resistance of the blank insert was 5-12 ohms.
TER was measured before and after the sixty (60) minute incubation. […] After the 60 minute incubation with test samples, 200 μL of fresh media was gently added to the apical surface of each test sample insert and final TER was measured for each insert. […] Resistance is expressed as follows: (resistance measured−blank)×0.6 cm^2.

[7] = 5° C. (refrigerated), at least two weeks, absorbance at 630 nm

| Compound | Physical stability / clarity (in words) [2, 7] | Toxicity / cell viability (in words) [5] | further results |
| --- | --- | --- | --- |
| hydroxypropyl-β-cyclodextrin [HP-β-CD] | – | – | Exenatide permeation across the tissue barrier (in words) ([1]; excipient screen, compared with AKL-225-126-2 or control without enhancers): did not increase permeation significantly |
| CCCCCCCCC(=O)OC[C@H](COP(=O)([O-])OCC[N+](C)(C)C)OC(=O)CCCCCCCC [dinonanoyl glycero phosphatidylcholine, Di Nonanoyl Glycero Phosphatidylcholine (9:0)] | becoming turbid in less than two weeks at refrigerated conditions | – | – |
| C[C@H](CCC(=O)NCC(=O)[O-])[C@H]1CC[C@H]2[C@@H]3[C@H](O)C[C@@H]4C[C@H](O)CC[C@]4(C)[C@H]3C[C@H](O)[C@]12C.[Na+] [Sodium glycocholate, sodium glycocholate] | physically instable at high concentrations | – | – |
| human growth hormone: human growth hormone given nasally to anesthetized rats, without and with N-acetyl-L-cysteine | – | – | Nasal bioavailability of human growth hormone ([3]; with N-acetyl-L-cysteine (ACS)): 12.2%; Nasal bioavailability of human growth hormone ([3]; without N-acetyl-L-cysteine): 7.5% |
| CC(C)CC(N)B(O)O (stereo not drawn) [boro-leucine] | – | – | Times more effective in enzyme inhibition than bestatin (aminopeptidases): more than 100 times; Times more effective in enzyme inhibition than puromycin (aminopeptidases): more than 1000 times |
| OC[C@H]1O[C@@H]2O[C@H]3[C@H](O)[C@@H](O)[C@@H](O[C@H]4[C@H](O)[C@@H](O)[C@@H](O[C@H]5[C@H](O)[C@@H](O)[C@@H](O[C@H]6[C@H](O)[C@@H](O)[C@@H](O[C@H]7[C@H](O)[C@@H](O)[C@@H](O[C@H]8[C@H](O)[C@@H](O)[C@@H](O[C@H]1[C@H](O)[C@H]2O)O[C@@H]8CO)O[C@@H]7CO)O[C@@H]6CO)O[C@@H]5CO)O[C@@H]4CO)O[C@@H]3CO [β-cyclodextrin] | became turbid at refrigerated conditions | – | – |
| NCCN(CCN)/[N+]([O-])=N/O [diethylenetriamine/NO] | – | – | Rate (time) of NO release [4]: approximately 20 hours |
| CCN(CC)/[N+]([O-])=N/O.CCNCC [diethylamine/NO] | – | – | Rate (time) of NO release [4]: < 3 min |
| CCCCCCCCO[C@H]1O[C@H](CO)[C@@H](O)[C@H](O)[C@H]1O [Octyl-α-glucopyranoside] | – | – | Fold increase in exenatide permeation over AKL-225-126-2 [1]: not more than 1.5 fold |
| CCCCCCCCCC(=O)[O-].[Na+] [sodium caprate] | physical instability in the absence of Me-β-CD | low cell viability at 50 mM alone | – |
| triton X | – | – | Effect on TER (in words) [6]: lowest possible TER |
| CCCCCCCCCCCCCCCC(=O)OC(CC(=O)[O-])C[N+](C)(C)C (racemic) [Palmitoyl-DL-carnitine, palmitoyl-DL-carnitine] | physically instable without Me-β-CD | toxic at high concentrations | – |
| O=C(O)CN(CCN(CC(=O)O)CC(=O)O)CC(=O)O [EDTA, ethylene diamine tetraacetic acid] | – | at 10 mg/mL EDTA, cell viability began to decrease | – |
| Dodecanoylsucrose | – | toxic at 10 mg/mL | Fold increase in exenatide permeation over AKL-225-126-2 [1]: not more than 1.5 fold |
| CCCCCCCCCCCCC[N+](C)(C)Cc1ccccc1 [benzalkonium chloride (BAK), benzalkonium chloride] | – | decreasing cell viability with increasing BAK concentration | Physical stability / clarity (in words) [2]: remained physically stable for two weeks at 5 °C |
| CCCCCCCC/C=C\CCCCCCCC(=O)O [oleic acid] | – | 3 mg/mL oleic acid resulted in lowered cell viability | – |
| CCCCCCCCO[C@@H]1O[C@H](CO)[C@@H](O[C@H]2O[C@H](CO)[C@@H](O)[C@H](O)[C@H]2O)[C@H](O)[C@H]1O [n-octyl-β-D-maltopyranoside, n-Octyl-β-D-maltopyranoside] | – | – | Fold increase in exenatide permeation over AKL-225-126-2 [1]: not more than 1.5 fold |
| CCCCCCCC/C=C\CCCCCCCC(=O)OCCOCC(OCCO)C1OCC(OCCO)C1OCCO (stereo not drawn) [Tween-80] | – | – | Exenatide permeation across the tissue barrier (in words) ([1]; human, 1 h): failed to enhance exenatide permeation to the same extent as formulation AKL-225-126-2 |
| O=C([O-])c1ccccc1.[Na+] [sodium benzoate] | 2 mg/mL of more sodium benzoate became turbid within 14 days at 5 °C | – | – |
| dimethyl-β-cyclodextrin [DMe-β-CD] | – | more toxic to the cells than Me-β-CD | Fold increase in exenatide permeation over AKL-225-126-2 [1]: 1.5 fold |
| CCCCCCCC(=O)[O-].[Na+] [sodium caprylate] | physical instability in the absence of Me-β-CD | toxic at 20 mM with Me-β-CD and EDTA | – |
| CCCCCCCCO[C@@H]1O[C@H](CO)[C@H](O)[C@H](O)[C@H]1O [galactopyranoside, n-Octyl-β-D-galactopyranoside] | – | toxic at 10 mg/mL | – |
